Test results published in patent US20260240817A1, “COMPOSITIONS AND METHODS FOR TREATING CHARCOT-MARIE-TOOTH DISEASE” (priority 2023, published 2026).
“Also recorded” adds a separate entry of the source.

What was measured:
[1] = Tablet dissolution (USP2 paddles, pH 6.8); type: physicochemical; settings: immediate release film-coated tablets; after a maximum of 60 minutes; USP2 paddles 75 RPM, 37° C., 900 ml pH 6.8
Method: Tablet dissolution was determined as follows. […] Dissolution Media pH 6.8 was prepared by dissolving 27.3g Na2HPO4·2H2O and 4.9 g Citric Acid in 1 L Milli-Q water. The pH was measured and adjusted if necessary to pH 6.8. 900 mL of dissolution media pH 6.8 was accurately transferred into each dissolution vessel. The apparatus was assembled, and the dissolution media was heated to 37° C.±0.5° C. The T=0 point was extracted from each vessel prior to dropping the tablets into the dissolution vessels. One tablet was gently dropped into each dissolution vessel, and rotation of the paddle was immediately started. Samples were taken that the sample extraction timepoints and analysed using the HPLC method.

[2] = system: soleus muscle fibres from CMT2D mice; type: cell-based, mouse; settings: 10 μM NMD670 added to CMT2D fibres, μ-Conotoxin-treated; vs before addition; 12, 30, 80 Hz trains
[3] = system: WT mice; assay: In situ force and CMAP of triceps surae on sciatic nerve stimulation, wild type; type: in vivo, mouse
Excerpt: (§1) Mice were removed from their housing on the day of experiment and sedated with isoflurane (2-3%) dissolved in oxygen (supplied in a mask placed around the mouth and nose (Microvent 1, Hallowell EMC)) and placed on a heated mat. Sedation was ensured by testing the reflexes of the front limbs by tweezing them with a set of tweezers. Temperature was monitored by rectal probe. When fully sedated the Achilles tendon was blotted, tied by cotton string to a force transducer (Grass instruments) and cut distal to the cotton string, to allow recording of force from muscle of the lower limb. To record compound muscle action potentials (CMAP), two small needle electrodes were placed subcutaneously, one over the belly of the triceps surae muscle, and one at the distal part close to the tendon. To allow stimulation of the sciatic nerve, two stimulation needle electrodes were inserted at the base of the tail, one on each side of the sciatic nerve. Optimal placement was tested by applying short pulses via the stimulation electrodes, and assessing the resulting force and CMAP. When a stable response was obtained, electrodes were secured with tape, and the animal was allowed to rest for 10 minutes.
(§2) After optimal set-up and rest, the following stimulation paradigm was initiated: Every 30 seconds the sciatic nerve was stimulated at 8-12 Volt by pulses of 0.1 ms duration at 12 Hz with 10 pulses (12 Hz protocol). This was repeated 9 times after which a single stimulation at 120 Hz for 1 s was made. The 12 Hz protocol was then again repeated 9 times followed a stimulation at 30 Hz for 1 s. This cycle was repeated throughout the experiments providing recordings of force and CMAP at 120 Hz and 30 Hz every 10th minute interspaced by 12 Hz protocols every 30 second. When 3 consecutive measurements of 120 Hz were similar, NMD670 was administered I.V. (8 mg/kg dissolved in phosphate buffered saline at 2 mg/mL), while the stimulation paradigm continued. Animals were monitored for 6 hours after injection of NMD670. Force and CMAP were measured and digitalized by an AD converter (CED, UK,) and analysed in “Signal 6” (Cambridge Electronic Designs, UK). When analysing force traces, the peak amplitude of each twitch peak at 12 and 30 Hz was measured, and the baseline subtracted. The force at 30 and 120 Hz was also quantified as a force-time integral, or area under the curve (AUC). The CMAP recordings were quantified as the peak-to-peak levels for each CMAP in every train. The peak heights or CMAP levels were then expressed as ratios relative to the first CMAP peak in the train e.g. forth peak relative to 1st peak (T4/T1) and 10th peak relative to 1st peak (T10/T1).

[4] = system: CMT2D Gars^P278KY mice; assay: In situ force and CMAP of triceps surae on sciatic nerve stimulation, CMT2D model; type: in vivo, mouse
Method: CMT2D Gars^P278KY mice (Jackson laboratories, stock 17540) were used (Spauling et al. 2016). All handling and use of animals complied with Danish Animal Welfare regulations (licence 2017-15-0201-01223). Animals were fed ad libitum, kept at 12 h light/dark condition at 21° C. and observed daily.
as §1
The single fibre measurements of EPP was performed in animals aged 8 to 15 weeks, whilst the in situ stimulation protocol part was performed in animals 37 weeks of age, from the same litter.
as §2

[5] = Wild Type, after NMD670 (before 100)
[6] = Gars^P278KY mice, after injection of NMD670
[7] = Gars^P278KY mice, after injection of NMD670, not fully normalized
[8] = Gars^P278KY, after 8 mg/kg i.v. (before 100)

Compound: C[C@H](Oc1ccc(Br)cc1-c1ccon1)C(=O)O [NMD670, (2S)-2-[4-bromo-2-(1,2-oxazol-3-yl)phenoxy]propanoic acid]
- NMD670 released from the tablets [1]: Not less than 80%
- EPP amplitude [2]: significant increase; also recorded: small non-significant increase
- increase of ratio of the 5th and 1st CMAP peaks ([3]; WT mice after injection of NMD670, 30 and 80 Hz stimulations as printed): not significantly different
- Twitch force relative to BW ([3]; Wild Type, after NMD670 (before 1.08 ± 0.01)): 1.06 ± 0.02
- Twitch force ([3]; Wild Type, after NMD670 (before 21.6 ± 1.3)): 22.2 ± 2.3 g
- Force 12 Hz Ratios T4/T1 ([3]; Wild Type, after NMD670 (before 96.6 ± 1.3)): 97.7 ± 06%
- Force 12 Hz Ratios T10/T1 ([3]; Wild Type, after NMD670 (before 97.3 ± 0.6)): 99.2 ± 0.3%
- Force 30 Hz AUC (% of initial) [3, 5]: 102.9 ± 1.9 % of initial
- Force 120 Hz AUC (% of initial) [3, 5]: 100.7 ± 2.7 % of initial
- 12 Hz Ratios CMAP T4/T1 ([3]; Wild Type, after NMD670 (before 102.2 ± 0.9)): 103.1 ± 0.2
- 12 Hz Ratios CMAP T10/T1 ([3]; Wild Type, after NMD670 (before 102.8 ± 0.1)): 102.8 ± 2.2
- EMG (CMAP) 30 Hz 5/1 ([3]; Wild Type, after NMD670 (before 105.8 ± 3.1)): 119.0 ± 11.6
- EMG (CMAP) 120 Hz 5/1 ([3]; Wild Type, after NMD670 (before 110.2 ± 6.5)): 123.5 ± 20.6
- force, CMAP and relative force peaks (T4 or T10/T1) ([4]; Gars^P278KY mice, after 8 mg/kg NMD670 i.v., 12, 30, 120 Hz stimulation): less decrease in amplitudes; also recorded: improved; also recorded: increase
- T4/T1 and T10/T1 ratios of twitch force [4, 6]: normalization
- increase in absolute twitch force [4, 6]: 25%
- increase of force during 30 Hz stimulation [4, 7]: 21%
- increase of force during 120 Hz stimulation [4, 7]: 30%
- Twitch force ([4]; Gars^P278KY, after 8 mg/kg NMD670 i.v. (before 6.06 ± 0.8)): 7.5 ± 1.1 g
- Twitch force relative to BW ([4]; Gars^P278KY, after 8 mg/kg i.v. (before 0.42 ± 0.05)): 0.51 ± 0.05
- 12 Hz Ratios CMAP T10/T1 ([4]; Gars^P278KY, after 8 mg/kg i.v. (before 63.5 ± 4.91)): 76.1 ± 4.37
- 12 Hz Ratios CMAP T4/T1 ([4]; Gars^P278KY, after 8 mg/kg i.v. (before 75.5 ± 2.8)): 86.3 ± 2.44
- Force 12 Hz Ratios T10/T1 ([4]; Gars^P278KY, after 8 mg/kg i.v. (before 82.0 ± 6.0)): 93.8 ± 5.7%
- EMG (CMAP) 30 Hz 5/1 ([4]; Gars^P278KY, after 8 mg/kg i.v. (before 82.4 ± 3.3)): 95.3 ± 2.4
- EMG (CMAP) 120 Hz 5/1 ([4]; Gars^P278KY, after 8 mg/kg i.v. (before 83.8 ± 13.9)): 102.0 ± 4.3
- Force 12 Hz Ratios T4/T1 ([4]; Gars^P278KY, after 8 mg/kg i.v. (before 88.2 ± 5.1)): 97.8 ± 5.0%
- Force 30 Hz AUC (% of initial) [4, 8]: 124.1 ± 3.7 % of initial
- Force 120 Hz AUC (% of initial) [4, 8]: 136.7 ± 29.9 % of initial
